# Source: patent publication US8173387B2, “Method of examining chemical using gene-disrupted strain” (priority 2003, dated 2012)
# Key:
# Format in all cases: cell-based, Saccharomyces cerevisiae
# [1] = tested on: heterozygous diploid of gene-disrupted strain DEL022 (YLR226W) transformed with a plasmid p-YBR072W; assay: promoter assay (GFP reporter), Example 3; conditions: DEL0022 heterozygous diploid, W303 background
# From the text: (§1) In order to prepare a gene-disrupted strain transformation cassette, genes having chemical sensitivity; YPR036W(DEL000), YDL151C(DEL001), YGL026C(DEL003), YHR039C-A(DEL006), YKL080W(DEL007), YLR447C(DEL008), YGR006W(DEL012), YGR105W(DRL013), YJR104C(DEL014), YGL206C(DEL018), YIL036W(DEL019), YKL119C(DEL020), YLR226W(DEL022) and YLR311C(DEL025) in Table 7 were selected, and each gene was replaced with a transformation marker such as kanamycin resistance. As primers for performing PCT amplification, a N-terminal side (ORF(upper)) and a C-terminal side (ORF(lower)) in each ORF were used. A length of a sequence (ORF(upper) and ORF(lower)) of a primer homologues with ORF was 46 or 50 bp.
# (§2) A W303 a mating type (ATCC200903) and a W303α mating type (ATCC201238) in which the same gene was gene disruption-manipulated were mated by a mating procedure (Yeast Gene Experimental Manual: Maruzen Co., Ltd., p 83-92) to prepare homozygous diploids. Separately, mating of a W303a mating type, and a non-gene-disrupted W303α type was performed by the similar procedure to prepare heterozygous diploids.
# (§3) By such the procedure, homozygous diploids of DEL000, DEL001, DEL003, DEL006, DEL007, DEL008, DEL012, DEL013, DEL014, DEL018, DEL019, DEL020, DEL022 and DEL025 in Table 7 were prepared. In addition, heterozygous diploids in which DEL006, DEL014 and DEL 022 were mated with a non-gene-disrupted strain (hereafter, referred to as DEL006 heterozygous diploid, DEL 014 heterozygous diploid, DEL022 heterozygous diploid) and, further, a heterozygous diploid in which DEL000 and DEL014 were mated (hereafter, referred to as DEL000/014 heterozygous diploid) were prepared.
# (§4) Competent cells of W303 ATCC201239 (MATa/MATα leu2-3/leu2-3 leu2-112/leu2-112 trp1-1/trp1-1 ura3-1/ura3-1 his 3-11/his3-11 his3-15/his3-15 ade2-1/ade2-1 can1-100/can1-100) which is a parent strain of gene-disrupted strains, and each of prepared gene-disrupted strains were prepared. The competent cells were transformed using two kind of prepared plasmid for promoter assay, p-YBR072W (in which GFP is connected downstream of a promoter of YBR072W) and p-YPL171C (in which GFP is connected downstream of a promoter of YPL171C).
# (§5) The resulting transformant was grown to the steady state by shaking-culturing on a SD medium (adenine, hystidine, triptophan, leucine) at 25° C. The transformant in the steady state was diluted 500-fold with the same medium, shaking-cultured at 25° C. for 15 hours and, after it was confirmed that an absorbance at 600 nm was 0.2 to 0.5 as a logarithmic growth phase, chemicals having different concentrations were loaded. After loading of chemicals, fluorescence of cells which had been cultured for 4 hours was measured using a flow cytometer (FITC filter, EPICS XL-MCL, Bechmancoulter), and this was adopted as an expression amount of GFP (green fluorescence protein) which is a marker gene. A fluorescence intensity of 10000 cells was measured with a flow cytometer by one measurement and an average of fluorescence intensities of all cells was obtained, and was adopted as a measured value. Similarly, a fluorescence intensity of a cell to which a chemical had not been loaded was obtained, and results are shown as difference in a fluorescence intensity.
# [2] = tested on: homozygous diploid of gene-disrupted strain DEL022 (YLR226W) transformed with a plasmid p-YBR072W; assay: promoter assay (GFP reporter), Example 3; conditions: DEL022 (DEL0022) homozygous diploid, W303 background
# From the text: as §1, §2, §3, §4, §5
# [3] = tested on: homozygous diploid of gene-disrupted strain DEL006 (YHR039C-A) transformed with a plasmid p-YBR072W; assay: promoter assay (GFP reporter), Example 3; conditions: W303 background
# From the text: as §1, §2, §3, §4, §5
# [4] = tested on: homozygous diploid of gene-disrupted strain DEL007 (YKL080W) transformed with a plasmid p-YBR072W; assay: promoter assay (GFP reporter), Example 3; conditions: EL007 homozygous diploid, W303 background
# From the text: as §1, §2, §3, §4, §5
# [5] = tested on: homozygous diploid of gene-disrupted strain DEL013 (YGR105W) transformed with a plasmid p-YBR072W; assay: promoter assay (GFP reporter), Example 3; conditions: W303 background
# From the text: as §1, §2, §3, §4, §5
# [6] = tested on: homozygous diploid of gene-disrupted strain DEL020 (YKL119C) transformed with a plasmid p-YBR072W; assay: promoter assay (GFP reporter), Example 3; conditions: W303 background
# From the text: as §1, §2, §3, §4, §5
# [7] = tested on: homozygous diploid of gene-disrupted strain DEL012 (YGR006W) transformed with a plasmid p-YBR072W; assay: promoter assay (GFP reporter), Example 3; conditions: W303 background
# From the text: as §1, §2, §3, §4, §5
# [8] = tested on: gene-disrupted strain DEL025 (YLR311C) transformed with a plasmid p-YBR072W; assay: promoter assay (GFP reporter), Example 2; conditions: DEL025, p-YBR072W, GFP fluorescence 4 hours after loading, parent strain BY4743
# Experimental: (§6) In a gene-disrupted strain, a growing rate becomes small so much, or medium components in which the strain can be grown are different in some cases, depending on a disrupted gene. Then, in the present experiment studying a host cell of a promoter assay method, in view of easy comparison with a control experiment, among gene-disrupted strains obtained as the result of Example 1, a few strains which have sensitivity to many chemicals and are grown by the same procedure as that of a parent strain were selected. Selected gene-disrupted strains are 8 strains of DEL000, DEL002, DEL011, DEL014, DEL016, DEL019, DEL022 and DEL025 in Table 7. Further, as a control, a parent strain, BY4743 was used.
# (§7) A competent cell of each of a parent strain of a gene-disrupted strain and selected gene-disrupted strains was prepared. This competent cell was transformed using two kinds of prepared plasmids for promoter assay, p-YBR072W (in which GFP was connected understream of a promoter of YBR072W) and p-YPL171C (in which GFP was connected downstream of a promoter of YPL171C).
# as §5, with “(histidine,” for “(adenine, hystidine, triptophan,”, “as” for “as difference in”, “intensity ratio.” for “intensity.”
# [9] = tested on: gene-disrupted strain DEL019 (YIL036W) transformed with a plasmid p-YBR072W; assay: promoter assay (GFP reporter), Example 2; conditions: DEL 019, p-YBR072W, GFP fluorescence 4 hours after loading, parent strain BY4743
# Experimental: as §6, §7
# as §5, with “(histidine,” for “(adenine, hystidine, triptophan,”, “as” for “as difference in”, “intensity ratio.” for “intensity.”
# [10] = tested on: gene-disrupted strain DEL022 (YLR226W) transformed with a plasmid p-YBR072W; assay: promoter assay (GFP reporter), Example 2; conditions: GFP fluorescence 4 hours after loading, parent strain BY4743
# Experimental: as §6, §7
# as §5, with “(histidine,” for “(adenine, hystidine, triptophan,”, “as” for “as difference in”, “intensity ratio.” for “intensity.”
# [11] = tested on: gene-disrupted strain DEL000 (YPR036W) transformed with a plasmid p-YBR072W; assay: promoter assay (GFP reporter), Example 2; conditions: GFP fluorescence 4 hours after loading, parent strain BY4743
# Experimental: as §6, §7
# as §5, with “(histidine,” for “(adenine, hystidine, triptophan,”, “as” for “as difference in”, “intensity ratio.” for “intensity.”
smiles,measurement,setting,value
CCN(CC)C(=O)SCc1ccc(Cl)cc1 [benthiocarb],"concentration at which sensitivity is shown, as fraction of a concentration of a gene-non-disrupted strain",[1],1/3
same,"concentration at which sensitivity is shown, as fraction of a concentration of a gene-non-disrupted strain",[2],1/10
same,"concentration at which sensitivity is shown, as fraction of a concentration of a gene-non-disrupted strain",[3],1/10
same,"concentration at which sensitivity is shown, as fraction of a concentration of a gene-non-disrupted strain",[4],1/10
same,"concentration at which sensitivity is shown, as fraction of a concentration of a gene-non-disrupted strain",[5],1/3
same,"concentration at which sensitivity is shown, as fraction of a concentration of a gene-non-disrupted strain",[6],1/3
same,"concentration at which sensitivity is shown, as fraction of a concentration of a gene-non-disrupted strain",[7],1/3
same,"concentration at which the strain responded, as fraction of a concentration of a parent strain",[8],1/3
same,"concentration at which the strain responded, as fraction of a concentration of a parent strain",[9],1/100
same,"concentration at which the strain responded, as fraction of a concentration of a parent strain",[10],1/10
same,"concentration at which the strain responded, as fraction of a concentration of a parent strain",[11],1/3
